Data as given in ChEMBL document CHEMBL3045770, “Design and synthesis of some thieno[2,3-c]pyridazine derivatives of expected anticancer activity” (2013).

What was measured:
Assay type in all cases: functional
[1] = system: SNB-19; assay: Cytotoxicity against Homo sapiens (human) SNB19 assessed as cell growth at 10 uM after 48 hr by SRB assay relative to control; conditions: SNB-19, 48 h, read-out: Activity
[2] = system: SF-539; assay: Cytotoxicity against Homo sapiens (human) SF539 assessed as cell growth at 10 uM after 48 hr by SRB assay relative to control; conditions: SF-539, 48 h, read-out: Activity
[3] = system: SF-268; assay: Cytotoxicity against Homo sapiens (human) SF268 assessed as cell growth at 10 uM after 48 hr by SRB assay relative to control; conditions: SF-268, 48 h, read-out: Activity
[4] = system: SW-620; assay: Cytotoxicity against Homo sapiens (human) SW620 assessed as cell growth at 10 uM after 48 hr by SRB assay relative to control; conditions: SW-620, 48 h, read-out: Activity
[5] = system: KM12; assay: Cytotoxicity against Homo sapiens (human) KM12 assessed as cell growth at 10 uM after 48 hr by SRB assay relative to control; conditions: KM12, 48 h, read-out: Activity
[6] = system: HCT-15; assay: Cytotoxicity against Homo sapiens (human) HCT15 assessed as cell growth at 10 uM after 48 hr by SRB assay relative to control; conditions: HCT-15, 48 h, read-out: Activity
[7] = system: HCT-116; assay: Cytotoxicity against Homo sapiens (human) HCT116 assessed as cell growth at 10 uM after 48 hr by SRB assay relative to control; conditions: HCT-116, 48 h, read-out: Activity
[8] = system: COLO 205; assay: Cytotoxicity against Homo sapiens (human) COLO205 assessed as cell growth at 10 uM after 48 hr by SRB assay relative to control; conditions: COLO 205, 48 h, read-out: Activity
[9] = system: HCC 2998; assay: Cytotoxicity against Homo sapiens (human) HCC2998 assessed as cell growth at 10 uM after 48 hr by SRB assay relative to control; conditions: HCC 2998, 48 h, read-out: Activity
[10] = system: NCI-H522; assay: Cytotoxicity against Homo sapiens (human) NCI-H522 assessed as cell growth at 10 uM after 48 hr by SRB assay relative to control; conditions: NCI-H522, 48 h, read-out: Activity
[11] = system: NCI-H460; assay: Cytotoxicity against Homo sapiens (human) NCI-H460 assessed as cell growth at 10 uM after 48 hr by SRB assay relative to control; conditions: NCI-H460, 48 h, read-out: Activity
[12] = system: NCI-H226; assay: Cytotoxicity against Homo sapiens (human) NCI-H226 assessed as cell growth at 10 uM after 48 hr by SRB assay relative to control; conditions: NCI-H226, 48 h, read-out: Activity
[13] = system: NCI-H23; assay: Cytotoxicity against Homo sapiens (human) NCI-H23 assessed as cell growth at 10 uM after 48 hr by SRB assay relative to control; conditions: NCI-H23, 48 h, read-out: Activity
[14] = system: HOP-92; assay: Cytotoxicity against Homo sapiens (human) HOP92 assessed as cell growth at 10 uM after 48 hr by SRB assay relative to control; conditions: HOP-92, 48 h, read-out: Activity
[15] = system: HOP-62; assay: Cytotoxicity against Homo sapiens (human) HOP62 assessed as cell growth at 10 uM after 48 hr by SRB assay relative to control; conditions: HOP-62, 48 h, read-out: Activity
[16] = system: MOLT-4; assay: Cytotoxicity against Homo sapiens (human) MOLT4 assessed as cell growth at 10 uM after 48 hr by SRB assay relative to control; conditions: MOLT-4, 48 h, read-out: Activity
[17] = system: SN12C; assay: Cytotoxicity against Homo sapiens (human) SN12C assessed as cell growth at 10 uM after 48 hr by SRB assay relative to control; conditions: read-out: Activity
[18] = system: SK-OV-3; assay: Cytotoxicity against Homo sapiens (human) SKOV3 assessed as cell growth at 10 uM after 48 hr by SRB assay relative to control; conditions: SK-OV-3, 48 h, read-out: Activity
[19] = system: ACHN; assay: Cytotoxicity against Homo sapiens (human) ACHN assessed as cell growth at 10 uM after 48 hr by SRB assay relative to control; conditions: read-out: Activity
[20] = system: MCF7; assay: Cytotoxicity against Homo sapiens (human) MCF7 assessed as cell growth at 10 uM after 48 hr by SRB assay relative to control; conditions: MCF7, 48 h, read-out: Activity
[21] = Cytotoxicity against Homo sapiens (human) NCI-ADR-RES assessed as cell growth at 10 uM after 48 hr by SRB assay relative to control; conditions: read-out: Activity
[22] = system: OVCAR-3; assay: Cytotoxicity against Homo sapiens (human) OVCAR3 assessed as cell growth at 10 uM after 48 hr by SRB assay relative to control; conditions: OVCAR-3, 48 h, read-out: Activity
[23] = system: OVCAR-5; assay: Cytotoxicity against Homo sapiens (human) OVCAR5 assessed as cell growth at 10 uM after 48 hr by SRB assay relative to control; conditions: OVCAR-5, 48 h, read-out: Activity
[24] = system: UACC-257; assay: Cytotoxicity against Homo sapiens (human) UACC257 assessed as cell growth at 10 uM after 48 hr by SRB assay relative to control; conditions: UACC-257, 48 h, read-out: Activity
[25] = system: SK-MEL-28; assay: Cytotoxicity against Homo sapiens (human) SK-MEL-28 assessed as cell growth at 10 uM after 48 hr by SRB assay relative to control; conditions: SK-MEL-28, 48 h, read-out: Activity
[26] = system: SK-MEL-2; assay: Cytotoxicity against Homo sapiens (human) SK-MEL-2 assessed as cell growth at 10 uM after 48 hr by SRB assay relative to control; conditions: SK-MEL-2, 48 h, read-out: Activity
[27] = system: MDA-MB-435; assay: Cytotoxicity against Homo sapiens (human) MDA-MB-435 assessed as cell growth at 10 uM after 48 hr by SRB assay relative to control; conditions: MDA-MB-435, 48 h, read-out: Activity
[28] = system: LOX IMVI; assay: Cytotoxicity against Homo sapiens (human) LOXIMVI assessed as cell growth at 10 uM after 48 hr by SRB assay relative to control; conditions: read-out: Activity
[29] = system: 786-0; assay: Cytotoxicity against Homo sapiens (human) 786-0 assessed as cell growth at 10 uM after 48 hr by SRB assay relative to control; conditions: 786-0, 48 h, read-out: Activity
[30] = system: T47D; assay: Cytotoxicity against Homo sapiens (human) T47D assessed as cell growth at 10 uM after 48 hr by SRB assay relative to control; conditions: read-out: Activity
[31] = system: BT-549; assay: Cytotoxicity against Homo sapiens (human) BT549 assessed as cell growth at 10 uM after 48 hr by SRB assay relative to control; conditions: BT-549, 48 h, read-out: Activity
[32] = system: Hs-578T; assay: Cytotoxicity against Homo sapiens (human) Hs 578T assessed as cell growth at 10 uM after 48 hr by SRB assay relative to control; conditions: read-out: Activity
[33] = system: EKVX; assay: Cytotoxicity against Homo sapiens (human) EKVX assessed as cell growth at 10 uM after 48 hr by SRB assay relative to control; conditions: read-out: Activity

SMILES	growth at 10 µM [1] [%]	growth at 10 µM [2] [%]	growth at 10 µM [3] [%]	growth at 10 µM [4] [%]	growth at 10 µM [5] [%]	growth at 10 µM [6] [%]	growth at 10 µM [7] [%]	growth at 10 µM [8] [%]	growth at 10 µM [9] [%]	growth at 10 µM [10] [%]	growth at 10 µM [11] [%]	growth at 10 µM [12] [%]	growth at 10 µM [13] [%]	growth at 10 µM [14] [%]	growth at 10 µM [15] [%]	growth at 10 µM [16] [%]	growth at 10 µM [18] [%]	growth at 10 µM [19] [%]	growth at 10 µM [21] [%]	growth at 10 µM [22] [%]	other results
CC(=O)Oc1c(C2=NN(C(C)=O)C(c3ccccc3[N+](=O)[O-])O2)sc2nnc(-c3ccccc3)c(-c3ccccc3)c12 (stereo not drawn)	88.6	107	85.6	82.8	108	78	76.8	108	120	92	100	93	101	72.3	109	47.2	106	86.8	98.4	93.4	growth at 10 µM [17]: 76.3%; growth at 10 µM [20]: 64%; growth at 10 µM [23]: 95.1%; growth at 10 µM [24]: 101%; growth at 10 µM [25]: 97.1%; growth at 10 µM [26]: 101%; growth at 10 µM [27]: 97.9%; growth at 10 µM [28]: 105%; growth at 10 µM [29]: 102%; growth at 10 µM [30]: 97.5%; growth at 10 µM [31]: 89.8%; growth at 10 µM [32]: 114%
CNc1nnc(-c2sc3nnc(-c4ccccc4)c(-c4ccccc4)c3c2O)s1	105	109	106	105	126	98.9	102	131	98.4	111	106	106	115	116	115	93.3	97.7	107	105	116	growth at 10 µM [33]: 112%; growth at 10 µM [17]: 94.2%; growth at 10 µM [20]: 88.7%; growth at 10 µM [23]: 96.5%; growth at 10 µM [24]: 94.5%; growth at 10 µM [25]: 111%; growth at 10 µM [26]: 126%; growth at 10 µM [27]: 103%; growth at 10 µM [28]: 103%; growth at 10 µM [29]: 108%; growth at 10 µM [30]: 97.6%; growth at 10 µM [31]: 101%; growth at 10 µM [32]: 109%
Oc1c(-c2nnc(-c3ccc(Cl)cc3)o2)sc2nnc(-c3ccccc3)c(-c3ccccc3)c12	43.9	55	55.2	35.6	39.2	32	19.3	67.4	54.7	75.1	27.4	67.2	56.5	54.5	51.2	35.8	61.9	54	15.5	26	growth at 10 µM [33]: 58.5%; growth at 10 µM [20]: 33.5%; growth at 10 µM [23]: 84.8%; growth at 10 µM [24]: 85%; growth at 10 µM [25]: 71.8%; growth at 10 µM [26]: 87.1%; growth at 10 µM [27]: 58.6%; growth at 10 µM [28]: 28.1%; growth at 10 µM [29]: 61.1%; growth at 10 µM [30]: 53%; growth at 10 µM [31]: 56%; growth at 10 µM [32]: 62.4%
CCOC(=O)c1c(Nc2ccc(S(N)(=O)=O)cc2)nnc(-c2ccccc2)c1-c1ccccc1	108	108	105	105	104	93.4	93.3	113	96.8	111	108	102	115	86.5	108	78.2	108	97.6	96.8	118	growth at 10 µM [33]: 105%; growth at 10 µM [17]: 104%; growth at 10 µM [23]: 116%; growth at 10 µM [24]: 101%; growth at 10 µM [25]: 107%; growth at 10 µM [26]: 123%; growth at 10 µM [27]: 107%; growth at 10 µM [28]: 99.4%; growth at 10 µM [30]: 91.3%; growth at 10 µM [31]: 95%; growth at 10 µM [32]: 116%
